Patent US4451472A, “Inhibition of thromboxane synthetase with 3-(heteroalkyl)-indolyl-acrylic acid derivatives” (Pfizer Inc., priority 1981, dated 1984)
Where two headings read alike, the source gives them in different places.

Tested on: thromboxane B2 (TxB2) formation
Experiment: TxB2 generation in clotted whole blood of anaesthetized rabbits after intravenous dosing (method of Patrono et al., RIA)
Assay type: in vivo, New Zealand white rabbits
Conditions: Oryctolagus cuniculus, read-out: Percent Inhibition (%) of TxB2 formation; for inhibition at 0.3 mg/kg: 0.3 mg/kg i.v.; for inhibition at 1 mg/kg: 1.0 mg/kg i.v.; for inhibition at 0.1 mg/kg: 0.1 mg/kg i.v.
Experimental: A number of in vivo tests in animals have also been described for evaluating potential anti-thrombotic drugs. For instance, the method of Patrono et al. is adapted to study the generation of TxB2 in whole blood samples removed from animals prior to and following drug treatment. Briefly, blood samples are taken into glass tubes and allowed to clot at 37° C. Serum is then separated by centrifugation and the samples stored at -40° C. until assayed for TxB2, when appropriate dilutions of ethanol deproteinized samples are thereafter analyzed by RIA. This technique is used in experiments with the test compounds to determine intravenous potency in anesthetized rabbits.
In this study, male New Zealand white rabbits (2.6-5.6 kg.) are anesthetized with sodium pentobarbitone (30 mg./kg., i.v.), followed by urethane (500 mg./kg., i.p.). After cannulation of the trachea, a carotid artery is catheterized for collection of the blood samples. The catheter is kept patent by slow infusion (0.2 ml./minutes) of sterile saline. Control carotid arterial blood samples are then taken at 30 minutes and at 5 minutes prior to administration of the test compound or vehicle (0.9% w./v. NaCl, 0.2 ml./kg.) via a marginal ear vein. Three groups of rabbits are employed in the test. The first group is given the test compound at 0.03 mg./kg., followed one hour later by a second dose at 0.1 mg./kg. Similarly, the second group is administered the test compound at 0.3 mg./kg., followed by a second dose (one hour later) at 1.0 mg./kg. The third group is treated with the vehicle alone, followed one hour later by a further vehicle injection. Carotid arterial blood samples are then taken at various time intervals after all doses. At each time point, a 1.0 ml. blood sample is taken into a glass tube, without anticoagulant, for TxB2 determination. For the latter determination, the blood sample is allowed to clot during a two-hour incubation period at 37° C. (which preliminary experiments had already shown to give a maximum TxB2 production) and the resulting serum obtained by centrifugation. The serum samples are then processed through the TxB2 -RIA after deproteinization with ethanol and dilution with Isogel Tris buffer.

SMILES	inhibition at 0.3 mg/kg (2 min, 2 min) [%]	inhibition at 1 mg/kg (2 min, 2 min) [%]	inhibition at 0.1 mg/kg (0.25 h, 15 min) [%]	inhibition at 0.3 mg/kg (0.25 h, 15 min) [%]	inhibition at 1 mg/kg (0.25 h, 15 min) [%]	inhibition at 0.1 mg/kg (0.5 h, 30 min) [%]	inhibition at 0.3 mg/kg (0.75 h, 45 min) [%]	inhibition at 1 mg/kg (0.75 h, 45 min) [%]	inhibition at 0.3 mg/kg (1.25 h, 75 min) [%]	inhibition at 1 mg/kg (1.25 h, 75 min) [%]	inhibition at 0.3 mg/kg (0.5 h, 30 min) [%]
Cc1c(Cc2cccnc2)c2ccccc2n1/C=C/C(=O)O [Ex. 2, E-3-{1-[2-methyl-3-(3-pyridylmethyl)]indolyl}-acrylic acid]	95	97	81	98	94	82	93	97	90	95	–
Cc1c(Cn2ccnc2)c2ccccc2n1/C=C/C(=O)O [Ex. 1, E-3-{1-[2-methyl-3-(1-imidazolyl-methyl)]indolyl}-acrylic acid]	–	93	–	93	96	–	–	95	–	95	93
